# Source: patent US20030180398A1, “Composition for treating gastric ulcer and a process for preparing the same” (priority 2002, published 2003)
# What was measured:
# [1] = tested on: pyloric ligation induced ulcer; assay: Pyloric ligation induced ulcer model; assay type: in vivo, rats
# Experimental: 1. Animals were fasted for 24 hours in the raised mesh bottom cages to prevent coprophagia and were allowed free access to water. 2. The control group of rats was feed with the vehicle and the experimental groups with their respective drugs 45 minutes prior to the ligation. 3. The animal was anesthetized, abdomen was cut opened under xiphoid process, and the pyloric portion of the stomach was slightly lifted and ligated avoiding any damage to the adjacent blood vessels (According to the method of Shay et al. 1945). 4. The animals were stitched and kept for 4 hours with free access to water. 5. After 4 hours the animals were sacrificed under ether anesthesia and the stomach was dissected out incised along the greater curvature. 6. The stomach was washed thoroughly and the ulcer index was scored as per in other ulcer models.
# [2] = tested on: Aspirin induced gastric ulcer; assay: Aspirin induced gastric ulcer model; assay type: in vivo, rats
# Experimental: Gastric ulceration was induced by aspirin according to the method of Djahanguiri (1969). Aspirin (150 mg/Kg.) was administered per orally as a suspension in gum-acacia and the animal was sacrificed 5 hr. after the aspirin treatment and the ulcer index with protection index were calculated.
# [3] = tested on: Cold Restraint Ulcer (CRU); assay: Cold Restraint Ulcers (CRU) model; assay type: in vivo, rats
# Experimental: Adult rats of either sex, weighing 150-175 grams are fasted for 24 hours in metallic cages with raised mesh bottoms to prevent coprophagia and were allowed free access to water. The test drugs were administered 45 minutes before immobilizing the animals. The rats were immobilized in the restraint cage and kept at 4° C. in BOD incubator for 2 hours (According to the method of Senay and Levine 1967). The animals were sacrificed immediately after the restraint period. The abdomen was cut opened; stomach was taken out and incised along the greater curvature to observe the gastric lesions with the help of Magnascope (5× magnification)
# The following arbitrary scoring system was used to grade the severity and intensity of the lesions:
# 1. Shedding of epithelium=10
# 2. Petechial and frank hemorrhages=20
# 4. More than two ulcers=40
# The presence of any of these lesions was considered as a positive ulcerogenic response which has been shown as percentage of rats showing gastric lesions. The severity of ulcers is expressed in terms of ulcer index, which is the mean score of gastric lesions of all the rats in a group. The term Ulcer Index is defined as:
# Ulcer Index (U.I.)=Us+Up×10^−1
# where Us=Mean severity of ulcer score and
# Up=Percentage of animals with Ulcer incidences
# The percentage protection is calculated as follows:
# Percentage protection=(C−T/C)×100.
# where C=Number of animals showing ulcer response in control group and
# T=Number of animals showing ulcer response in test group.
# [4] = tested on: histamine induced duodenal ulcer; assay: Histamine induced duodenal ulcer model; assay type: in vivo, Guinea pig
# Experimental: 1. Animals were fasted for 24 hours with access to water.
# 2. The drug was given orally 1 hour prior to the histamine administration.
# 3. Histamine was administered in a dose of 0.25 mg/Kg, i.m. at 30 minutes interval for 7 times and it induced 100% duodenal ulceration in guinea pig (According to the method of Watt and Eagleton 1964).
# 4. The animals were sacrificed after half an hour of last injection under ether anesthesia.
# 5. The stomach along with duodenum were removed washed thoroughly and examined for the lesions. Ulcer index and protection index were calculated.
# [5] = tested on: Alcohol induced gastric ulcers; assay: Alcohol (ethanol) induced gastric ulcers in rats; assay type: in vivo
# Experimental: 1. Adult rats of either sex were taken; weighing 150-175 grams were fasted for 24 hours with free access to water.
# 2. The test drugs were administered (p.o.) 45 minutes before alcohol administration.
# 3.1 ml of chilled absolute alcohol was administered (p.o.) to the rats (According to the Wittetal).
# 4. Immediately after 1 hour, the animals were anesthetized, abdomen was cut opened stomach was taken out and incised along the greater curvature to observe the gastric lesions.
# The ulcers are examined under the 5× magnification with the help of magnascope.
# Absolute ethanol lesions appears as blackish lesions grouped in patches of varying size, usually parallel to the major axis of the stomach.
# 5. The lengths of the lesions are measured and summated to give a total lesion score, then calculated and expressed in percentage.
# [6] = Aspirin 150 mg/Kg p.o., 20 mg/Kg
structure (smiles),measurement,setting,value
COc1ccc2[nH]c([S+]([O-])Cc3ncc(C)c(OC)c3C)nc2c1 (centres unmarked) [Omeprazole],Ulcer index,"[1]; Ligation, 10 mg/Kg p.o.",6.6
same,Protection index,"[1]; Ligation, 10 mg/Kg p.o., versus ligation control",51.44
same,Percentage protection in respect to the protection of Omeprazole,"[1]; pyloric ligation induced ulcer, Omeprazole taken as 100%",100%
same,Mean severity of ulcer score,[2]; [6],6.6
same,Percentage of ulcer incidence (No. of rats showing ulcer/total No. of rats used),[2]; [6],50 (3/6) %
same,Ulcer index,[2]; [6],5.66
same,"Ulcer severity score 10 (Shedding of epithelium), No. of rats showing lesions/No. of rats tested",[2]; [6],2/6
same,"Ulcer severity score 20 (Petechial and frank hemorrhages), No. of rats showing lesions/No. of rats tested",[2]; [6],1/6
same,Protection index,"[2]; Aspirin 150 mg/Kg p.o., 20 mg/Kg, versus aspirin control",54.81
same,Percentage protection in respect to the protection of Omeprazole,"[2]; aspirin induced ulcer, 10 mg/Kg, standard taken as 100%",100%
same,Mean severity of ulcer score,[3]; 10 mg/Kg p.o.,07
same,Percentage of ulcer incidence (No. of rats showing ulcer/total No. of rats used),[3]; 10 mg/Kg p.o.,50 (5/10) %
same,Ulcer index,[3]; 10 mg/Kg p.o.,5.7
same,"Ulcer severity score 10 (Shedding of epithelium), No. of rats showing lesions/No. of rats tested",[3]; 10 mg/Kg p.o.,3/10
same,"Ulcer severity score 20 (Petechial and frank hemorrhages), No. of rats showing lesions/No. of rats tested",[3]; 10 mg/Kg p.o.,2/10
same,Protection index,"[3]; 10 mg/Kg p.o., versus CRU control",54.03
same,Percentage protection in respect to the protection of Omeprazole,"[3]; 10 mg/Kg, standard taken as 100%",100%
same,Mean severity of ulcer score,"[4]; Histamine i.m., 10 mg/Kg p.o.",6.66
same,Percentage of ulcer incidence (No. of animals showing ulcer/total No. of animals used),"[4]; Histamine i.m., 10 mg/Kg p.o.",33.33 (1/3) %
same,Ulcer index,"[4]; Histamine i.m., 10 mg/Kg p.o.",3.99
same,"Ulcer severity score 20, No. Guinea pig showing lesions/No. Guinea pig tested","[4]; Histamine i.m., 10 mg/Kg p.o.",1/3
same,Volume of gastric fluid,"[4]; Histamine i.m., 10 mg/Kg p.o.",1.0 ± 0.2 mL
same,% Protection,"[4]; Histamine i.m., 10 mg/Kg p.o., versus ulcer control",70.79%
same,Percentage protection in respect to the protection of Omeprazole,"[4]; histamine induced duodenal ulcer, Omeprazole taken as 100%",100%
same,Length of hemorrhagic bands (mm ± SE),[5]; 100 mg/Kg p.o. + Ethanol,56.0 ± 9.12 mm
same,Percentage protection in respect to the protection of Omeprazole,"[5]; Alcohol induced ulcer, omeprazole taken as 100%",100.0%
